# From US20160176867A1, “MODIFIED BET-PROTEIN-INHIBITING DIHYDROQUINOXALINONES AND DIHYDROPYRIDOPYRAZINONES” (BAYER PHARMA AKTIENGESELLSCHAFT, priority 2013, published 2016)
# Tests used:
# CHL-1 cells = assay: Cell proliferation assay (alamarBlue), CHL-1; type: cell-based; settings: Homo sapiens; CHL-1 (melanoma, BRAF wild-type), 96 hours
# Protocol: (§1) In accordance with the invention, the ability of the substances to inhibit cell proliferation was determined. Cell viability was determined by means of the alamarBlue® reagent (Invitrogen) in a Victor X3 Multilabel Reader (Perkin Elmer). The excitation wavelength was 530 nm and the emission wavelength […].
# The CHL-1 cells (ATCC, CRL-9446) were sown at a concentration of 1000 cells/well in 100 μl of growth medium (DMEM with glutamine, 10% FCS) on 96-well microtitre plates.
# (§2) After overnight incubation at 37° C., the fluorescence values were determined (CI values). Then the plates were treated with various substance dilutions (1E-5 M, 3E-6 M, 1E-6 M, 3E-7 M, 1E-7 M, 3E-8 M, 1E-8 M) and incubated at 37° C. over 96 hours (MOLM-13, B16F10, CHL-1 cells) or 120 hours (MOLP-8 cells). Subsequently, the fluorescence values were determined (CO values). For the data analysis, the CI values were subtracted from the CO values and the results were compared between cells which had been treated with various dilutions of the substance or only with buffer solution. The IC50 values (substance concentration needed for 50% inhibition of cell proliferation) were calculated therefrom.
# MOLM-13 cells = assay: Cell proliferation assay (alamarBlue), MOLM-13; type: cell-based; settings: Homo sapiens; MOLM-13 (acute myeloid leukaemia), 96 hours
# Protocol: as §1
# The MOLM-13 cells (DSMZ, ACC 554) were sown at a concentration of 4000 cells/well in 100 μl of growth medium (RPMI1640, 10% FCS) on 96-well microtitre plates.
# as §2
# MOLP-8 cells = assay: Cell proliferation assay (alamarBlue), MOLP-8; type: cell-based; settings: Homo sapiens; MOLP-8 (multiple myeloma), 120 hours
# Protocol: as §1
# The MOLP-8 cells (DSMZ, ACC 569) were sown at a concentration of 4000 cells/well in 100 μl of growth medium (RPMI1640, 20% FCS) on 96-well microtitre plates.
# as §2
# [1] = target: T1, BRD4 bromo domain 2 [BRD4(2)] (Homo sapiens, UniProt O60885); assay: BRD4/acetylated peptide H4 binding assay (TR-FRET), BRD4 bromo domain 2; settings: inhibition of BRD4(2)/Ac-H4 peptide interaction
# T1 construct: N-terminally His6-tagged BRD4(2) (amino acids 357-445); made in house; host or cells: E. coli
# How it was run: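 Binding of His6-BRD4(2) (aa 357-445, 100 nM final) to biotinylated tetra-acetylated H4 peptide read by TR-FRET (665/620 nm). Compound preincubated 10 min at 22 °C, then 1 h at 22 °C plus ≥3 h at 4 °C. Eleven concentrations (0.1 nM–20 μM) in duplicate; IC50 by 4-parameter fit.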
Compound,IC50 (MOLM-13 cells) [nM],IC50 [1] [nM],IC50 (CHL-1 cells) [nM],IC50 (MOLP-8 cells) [nM]
"C[C@@H]1C(=O)N(C)c2ccc(Nc3cccc(S(=O)(=O)NCC4CCN(C)CC4)c3)nc2N1C1CCOCC1 [Example 44, 3-{[(3R)-1,3-dimethyl-2-oxo-4-(tetrahydro-2H-pyran-4-yl)-1,2,3,4-tetrahydropyrido[2,3-b]pyrazin-6-yl]amino}-N-[(1-methylpiperidin-4-yl)methyl]benzene-sulphonamide]",253,88,362,335
"C[C@@H]1C(=O)N(C)c2ccc(Nc3cccc(S(=O)(=O)NC4CCN(C)CC4)c3)nc2N1C1CCCCCC1 [Example 48, 3-{[(3R)-4-cycloheptyl-1,3-dimethyl-2-oxo-1,2,3,4-tetrahydropyrido-[2,3-b]pyrazin-6-yl]amino}-N-(1-methylpiperidin-4-yl)benzenesulphonamide]",240,101,111,197
"C[C@@H]1C(=O)N(C)c2ccc(Nc3cccc(S(N)(=O)=O)c3)nc2N1C1CCOCC1 [Example 58, 3-{[(3R)-1,3-dimethyl-2-oxo-4-(tetrahydro-2H-pyran-4-yl)-1,2,3,4-tetrahydropyrido[2,3-b]pyrazin-6-yl]amino}-benzenesulphonamide]",378,103,299,268
C[C@@H]1C(=O)N(C)c2ccc(Nc3cccc(C(=O)N[C@H]4CC[C@H](N5CCN(CC6CC6)CC5)CC4)c3)nc2N1c1ccc(F)cc1 [Example 93],410,2450,539,800
"C[C@@H]1C(=O)N(C)c2ccc(N(C)c3cccc(S(=O)(=O)N(C)C)c3)nc2N1C1CCOCC1 [Example 54, 3-{[(3R)-1,3-dimethyl-2-oxo-4-(tetrahydro-2H-pyran-4-yl)-1,2,3,4-tetrahydropyrido[2,3-b]pyrazin-6-yl](methyl)-amino}-N,N-dimethyl-benzenesulphonamide]",233,62,156,247
"C[C@@H]1C(=O)N(C)c2ccc(Nc3cccc(S(=O)(=O)NC4CCN(C)CC4)c3)nc2N1C1CCN(C(=O)OC(C)(C)C)CC1 [Example 57, tert-butyl 4-[(3R)-1,3-dimethyl-6-({3-[(1-methylpiperidin-4-yl)sulphamoyl]phenyl}-amino)-2-oxo-2,3-dihydro-pyrido[2,3-b]pyrazin-4(1H)-yl]piperidine-1-carboxylate]",193,177,175,151
"C[C@@H]1C(=O)N(C)c2ccc(Nc3ccc4c(c3)S(=O)(=O)NC4)nc2N1C1CCOCC1 [Example 56, (3R)-6-[(1,1-dioxido-2,3-dihydro-1,2-benzothiazol-6-yl)amino]-1,3-dimethyl-4-(tetrahydro-2H-pyran-4-yl)-3,4-dihydropyrido[2,3-b]pyrazin-2(1H)-one]",239,77,181,214
"COCCN1c2nc(Nc3cccc(S(=O)(=O)N4CCOCC4)c3)ccc2N(C)C(=O)C1C (racemic) [Example 49, 4-(2-methoxyethyl)-1,3-dimethyl-6-{[3-(morpholin-4-ylsulphonyl)phenyl]amino}-3,4-dihydropyrido[2,3-b]pyrazin-2(1H)-one]",269,159,153,163

# Now those with a lower IC50 (MOLM-13 cells), led by results:
IC50 (MOLM-13 cells) [nM],IC50 [1] [nM],Compound,IC50 (CHL-1 cells) [nM],IC50 (MOLP-8 cells) [nM]
140,62,"C[C@@H]1C(=O)N(C)c2ccc(Nc3cccc(S(=O)(=O)N(C)C)c3)nc2N1C1CCNCC1 [Example 123, 3-{[(3R)-1,3-dimethyl-2-oxo-4-(piperidin-4-yl)-1,2,3,4-tetrahydropyrido[2,3-b]pyrazin-6-yl]amino}-N,N-dimethylbenzene-sulphonamide]",218,169
126,148,"CC(C)CN1c2nc(Nc3cccc(S(=O)(=O)N[C@H]4CC[C@H](N5CCN(CC6CC6)CC5)CC4)c3)ccc2N(C)C(=O)[C@H]1C [Example 45, N-{trans-4-[4-(cyclopropylmethyl)-piperazin-1-yl]cyclohexyl}-3-{[(3R)-4-isobulyl-1,3-dimethyl-2-oxo-1,2,3,4-tetrahydropyrido[2,3-b]pyrazin-6-yl]amino}-benzenesulphonamide]",81,67
98,52,"COc1ccc(S(=O)(=O)N2CCN(C)CC2)cc1Nc1ccc2c(n1)N(C1CCOCC1)[C@H](C)C(=O)N2C [Example 40, (3R)-6-({2-methoxy-5-[(4-methylpiperazin-1-yl)sulphonyl]phenyl}-amino)-1,3-dimethyl-4-(tetrahydro-2H-pyran-4-yl)-3,4-dihydropyrido[2,3-b]pyrazin-2(1H)-one]",56,73
84,86,"C[C@@H]1C(=O)N(C)c2ccc(Nc3cccc(S(=O)(=O)N4CCN(CC(F)(F)F)CC4)c3)nc2N1C1CCNCC1 [Example 126, (3R)-1,3-dimethyl-4-(piperidin-4-yl)-6-[(3-{[4-(2,2,2-trifluoroethyl)piperazin-1-yl]sulphonyl}phenyl)amino]-3,4-dihydropyrido[2,3-b]pyrazin-2(1H)-one]",202,130
74,16,"C[C@@H]1C(=O)N(C)c2ccc(Nc3cccc(S(=O)(=O)N4CCN(CC(F)(F)F)CC4)c3)nc2N1C1CCOCC1 [Example 37, (3R)-1,3-dimethyl-4-(tetrahydro-2H-pyran-4-yl)-6-[(3-{[4-(2,2,2-trifluoroethyl)piperazin-1-yl]sulphonyl}phenyl)-amino]-3,4-dihydropyrido-[2,3-b]pyrazin-2(1H)-one]",53,65
64,64,"C[C@@H]1C(=O)N(C)c2ccc(Nc3cccc(S(=O)(=O)N4CC(F)(F)C4)c3)nc2N1C1CCN(C)CC1 [Example 29, (3R)-6-({3-[(3,3-Difluoroazetidin-1-yl)sulphonyl]phenyl}amino)-1,3-dimethyl-4-(1-methylpiperidin-4-yl)-3,4-dihydropyrido[2,3-b]pyrazin-2(1H)-one]",36,41
51,59,"C[C@@H]1C(=O)N(C)c2ccc(Nc3cccc(S(=O)(=O)N4CCOCC4)c3)nc2N1C1CCN(C)CC1 [Example 47, (3R)-1,3-dimethyl-4-(1-methylpiperidin-4-yl)-6-{[3-(morpholin-4-ylsulphonyl)phenyl]-amino}-3-4-dihydropyrido-[2,3-b]pyrazin-2(1H)-one]",20,25
22,43,"C[C@@H]1C(=O)N(C)c2ccc(Nc3cccc(S(=O)(=O)N(C)C)c3)nc2N1C1CCN(C)CC1 [Example 41, 3-{[(3R)-1,3-dimethyl-4-(1-methylpiperidin-4-yl)-2-oxo-1,2,3,4-tetrahydropyrido[2,3-b]pyrazin-6-yl]amino}-N,N-dimethylbenzene-sulphonamide]",21,17
21,53,"COc1ccc(S(=O)(=O)N2CCOCC2)cc1Nc1ccc2c(n1)N(C1CCOCC1)[C@H](C)C(=O)N2C [Example 28, (3R)-6-{[2-Methoxy-5-(morpholin-4-ylsulphonyl)phenyl]amino}-1,3-dimethyl-4-(tetrahydro-2H-pyran-4-yl)-3,4-dihydropyrido[2,3-b]pyrazin-2(1H)-one]",14,18
20,48,"C[C@@H]1C(=O)N(C)c2ccc(Nc3cccc(S(=O)(=O)N[C@H]4CC[C@H](N5CCN(CC6CC6)CC5)CC4)c3)nc2N1Cc1ccccc1 [Example 38, 3-{[(3R)-4-benzyl-1,3-dimethyl-2-oxo-1,2,3,4-tetrahydropyrido[2,3-b]pyrazin-6-yl]amino}-N-{trans-4-[4-(cyclopropyl-methyl)piperazin-1-yl]cyclohexyl}-benzenesulphonamide]",19,12
16,76,"C[C@@H]1C(=O)N(C)c2ccc(Nc3cccc(S(=O)(=O)NC4CCN(C)CC4)c3)nc2N1Cc1ccccc1 [Example 33, 3-{[(3R)-4-benzyl-1,3-dimethyl-2-oxo-1,2,3,4-tetrahydropyrido[2,3-b]pyrazin-6-yl]amino}-N-(1-methylpiperidin-4-yl)benzenesulphonamide]",13,12
